In ChEMBL document CHEMBL1926603 (Bioorg Med Chem Lett, 2011):

What was measured:
[1] = Ratio of kojic acid IC50 to compound IC50 for depigmentation activity in mouse Melan-a cells assessed as inhibition of melanin formation after 4 days; assay type: functional
[2] = molecular target: T1, Tyrosinase (Agaricus bisporus, UniProt O42713); test: Inhibition of mushroom tyrosinase activity using L-tyrosin as substrate after 20 mins
T1 sequence (O42713 whole entry): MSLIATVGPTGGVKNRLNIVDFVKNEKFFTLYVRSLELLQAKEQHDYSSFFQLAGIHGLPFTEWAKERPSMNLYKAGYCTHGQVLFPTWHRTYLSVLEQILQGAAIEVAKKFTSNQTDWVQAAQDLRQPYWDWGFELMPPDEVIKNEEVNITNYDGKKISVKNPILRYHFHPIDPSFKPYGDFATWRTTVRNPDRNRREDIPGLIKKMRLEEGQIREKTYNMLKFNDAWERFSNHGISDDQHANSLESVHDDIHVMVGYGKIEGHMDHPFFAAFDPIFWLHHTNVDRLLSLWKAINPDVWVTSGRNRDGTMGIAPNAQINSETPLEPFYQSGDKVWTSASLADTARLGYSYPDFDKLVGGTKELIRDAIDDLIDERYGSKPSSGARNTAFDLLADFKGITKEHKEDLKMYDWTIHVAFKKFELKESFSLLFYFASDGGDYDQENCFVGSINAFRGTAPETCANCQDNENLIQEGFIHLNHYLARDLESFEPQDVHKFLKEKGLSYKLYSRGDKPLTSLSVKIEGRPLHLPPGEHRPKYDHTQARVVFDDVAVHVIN

[3] = test system: Radical scavenging activity
Description: Antioxidant activity assessed as DPPH radical scavenging activity after 30 mins

[4] = cells; details: Mus musculus, Melan-a, 96 h
Description: Depigmentation activity in mouse Melan-a cells assessed as inhibition of melanin formation after 4 days

[5] = cells; details: Mus musculus, Melan-a
Description: Cytotoxicity against mouse Melan-a cells by modified crystal voilet assay

SMILES | IC50 [2] [µM] | IC50 [3] [µM] | IC50 [4] [µM] | IC50 [5] [µM] | Ratio IC50 [1]
COc1coc(COC(=O)C2(C)CCc3c(C)c(O)c(C)c(C)c3O2)cc1=O (stereo unspecified) | > 200 | 19.8 | > 200 | > 200 | 
O=C(OCc1cc(=O)c(O)co1)c1ccc2cc(O)ccc2c1 | 9.65 | > 200 | > 200 | > 200 | 
Cc1c(C)c2c(c(C)c1O)CCC(C)(C(=O)O)O2 (stereo unspecified) [TROLOX] | > 200 | 10.1 | > 300 | 300 | 

More lines, in order of falling IC50 [2], values ahead:

IC50 [2] [µM] | IC50 [3] [µM] | IC50 [4] [µM] | IC50 [5] [µM] | SMILES | Ratio IC50 [1]
5.51 | > 200 | > 200 | > 200 | O=C(OCc1cc(=O)c(O)co1)c1ccc(O)cc1 | 
5.36 | 11.6 | 17.7 | 56.5 | Cc1c(C)c2c(c(C)c1O)CCC(C)(C(=O)OCc1cc(=O)c(O)co1)O2 (racemic) | 90
